Literature values in US11278572B2, “Reducing CXCR4 expression and/or function to enhance engraftment of hematopoietic stem cells” (THE UNITED STATES OF AMERICA, as represented by the …, priority 2014, dated 2022).

Key:
CXCR4 = conditions: WHIM patients, small studies
HPV = conditions: WHIM patients

c1cc(CN2CCCNCCNCCCNCC2)ccc1CN1CCCNCCNCCCNCC1 [Plerixafor, plerixafor]
effect on panleukopenia and WHIM syndrome (CXCR4): successful at reversing the panleukopenia and treating WHIM syndrome

CC(C)Cn1cnc2c(N)nc3ccccc3c21 [imiquimod]
effect on cutaneous and anogenital HPV disease (HPV): ineffective
